According to US20240368122A1, “JAK2 INHIBITORS AND METHODS OF USE THEREOF” (RELAY THERAPEUTICS, INC., priority 2021, published 2024):

Tests used:
[1] = system: TF1 JAK2 V617F STAT5 reporter; test: Cellular TF1 STAT5 assay (luciferase reporter), JAK2 V617F; type: cell-based; details: TF1 JAK2 V617F, read-out: Cell PD TF1 V617F STAT5 (IC50)
In short: (§1)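 TF1 erythroleukemia cells expressing V617F JAK2 with a STAT3 or STAT5 luciferase reporter were seeded at 10,000 cells/well onto compound (10-point, 1:3 dilutions; 10 mM top stock at 1000×) and incubated 18-20 h at 37 °C, 5% CO2. Luminescence was read after ONE-glo addition, 10 min at room temperature.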

[2] = target: T1, JAK2 JH2 WT (V536-D812) [W659A, W777A, F794H solubilizing mutations] (Homo sapiens, UniProt O60674, F794H/W659A/W777A); test: Surface Plasmon Resonance (SPR) binding assay, JAK2 JH2 domain; details: SPR, JAK2 JH2 domain
T1 construct: **JAK2 JH2 WT (V536-D812) [W659A, W777A, F794H solubilizing mutations]; C-thrombin-avi-His6; thrombin cleavage site (C); His6 (C); purchased Biortus
In short: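 Kinetics came from 1:1 fits of single-cycle runs at 20 °C: four 3-fold dilutions from 5 uM for JH1 or 500 nM for JH2, 60 s association, and 300 s or 1200 s dissociation respectively. Protein was freshly captured per compound in the presence of 10 uM stabilizer compound, with running buffer of pH 7.5 HEPES/NaCl/glycerol/DTT plus 2% DMSO.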

JAK2 JH1 WT (T842-G1132) = target: T2, JAK2 JH1 WT (T842-G1132) (Homo sapiens, UniProt O60674); test: Surface Plasmon Resonance (SPR) binding assay, JAK2 JH1 domain; details: SPR, JAK2 JH1 domain
T2 construct: *JAK2 JH1 WT (T842-G1132) N-His60-avi-TEV; His6 (N); TEV cleavage site (N); purchased Biortus
Procedure: Selected compounds of the present disclosure were tested in a Surface Plasmon Resonance (SPR) Assay to measure their binding kinetics and affinity for proteins of interest.
Prepare buffer: 50 mM HEPES pH 7.5, 150 mM NaCl, 0.05% (v/v) Tween, and 10% (v/v) glycerol were combined and pH was adjusted to 7.5, then filtered. 5 mM DTT, was added, and buffer without DMSO was reserved for compound resuspension. 2% (v/v) DMSO was added for assay buffer, and separately 1% DMSO was used to make buffer for resuspending compounds.
Prepare compounds: Using a Bravo liquid handler, 99 μL of 1% (v/v) DMSO assay buffer was added to 1 μL compounds in DMSO.
Run 8K Method: Biotin CAPture (CAP) chip surface was regenerated prior to run by: Inserting CAP chip into Biacore 8K, prime machine with assay buffer with 2% (v/v) DMSO; Setting instrument temperature to 20° C.; Conditioning surface with NaOH/GdnHCl reagents from CAP chip kit (60 seconds, 10 μL/min); and Capturing oligo-Streptavidin (SA) reagent from CAP kit (600 seconds, 1 μL/min), expected capture ˜2500 RU. JAK2 JH1 or JH2 protein was immobilized by preparing a sample of 0.5 uM JH1 or 0.4 uM JH2 protein diluted in assay buffer without DMSO and supplemented with 10 uM of a selected compound of the invention as a stabilizer (370 seconds, 5 uL/min), expected capture ˜1000 RU. Remaining biotin sites on SA were blocked with 1 uM biotin (30 seconds, 20 uL/min), then equilibrated for 1800 seconds at 100 uL/min. Compounds being assayed were run in single cycle kinetics: 4 doses with a top concentration of 5 uM (JH1) or 500 nM (JH2), dilution factor of 3, at 20° C., for a contact time of 60 seconds, and a dissociation time of 300 seconds (JH1) or 1200 seconds (JH2), at a flow rate of 30 uL/min. The surface was completely regenerated after each compound is run, and JH1 or JH2 protein was immobilized fresh prior to each new compound. Data were fitted kinetically with 1:1 binding model using Biacore Insight Evaluation Software.

[3] = system: TF1 JAK2 V617F STAT3 reporter; test: Cellular TF1 STAT3 assay (luciferase reporter), JAK2 V617F; type: cell-based; details: TF1 JAK2 V617F, read-out: Cell PD-TF1 JAK2 V617F STAT3 (IC50)
In short: as §1

T2 sequence (O60674 842-1132): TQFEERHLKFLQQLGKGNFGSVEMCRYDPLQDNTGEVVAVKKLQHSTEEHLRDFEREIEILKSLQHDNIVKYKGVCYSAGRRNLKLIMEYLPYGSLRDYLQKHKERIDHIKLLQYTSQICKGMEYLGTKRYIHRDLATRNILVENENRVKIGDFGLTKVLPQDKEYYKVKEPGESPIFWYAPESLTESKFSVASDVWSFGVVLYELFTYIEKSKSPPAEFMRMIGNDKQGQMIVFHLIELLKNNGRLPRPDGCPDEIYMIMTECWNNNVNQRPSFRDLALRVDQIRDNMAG
T1 sequence (O60674 536-812 W659A/W777A/F794H): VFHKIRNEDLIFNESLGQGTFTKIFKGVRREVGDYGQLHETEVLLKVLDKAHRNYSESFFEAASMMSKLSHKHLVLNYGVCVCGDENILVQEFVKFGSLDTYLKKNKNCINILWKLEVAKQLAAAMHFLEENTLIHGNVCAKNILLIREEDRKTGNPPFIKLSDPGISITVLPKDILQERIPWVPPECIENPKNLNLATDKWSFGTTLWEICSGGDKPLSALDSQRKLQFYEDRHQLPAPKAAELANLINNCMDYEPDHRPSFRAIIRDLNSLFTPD

Structure (SMILES)	IC50 [1]	Kd [2]	Kd (JAK2 JH1 WT (T842-G1132))	IC50 [3]
CNC(=O)c1nnc(NC(=O)C2CC2)cc1Nc1cccc(-c2ccc(C(=O)N(C)Cc3cnn(C)c3)nc2)c1OC [Compound 17]	50 to 500 nM	0.01 to 10 nM	5000 to 100000 nM	50 to 500 nM
CNC(=O)c1nnc(NC(=O)C2CC2)cc1Nc1cccc(-c2ccc(C(=O)N(C)Cc3cc(C#N)ccn3)nc2)c1OC [Compound 18]	50 to 500 nM	0.01 to 10 nM	5000 to 100000 nM	50 to 500 nM
CNC(=O)c1nnc(NC(=O)C2CC2)cc1Nc1cccc(-c2ccc(C(=O)N(C)Cc3ccn(C)n3)nc2)c1OC [Compound 26]	50 to 500 nM	0.01 to 10 nM	5000 to 100000 nM	50 to 500 nM
CNC(=O)c1nnc(NC(=O)C2CC2)cc1Nc1cccc(-c2cnc(C(=O)N(C)Cc3cc(C#N)ccn3)c(F)c2)c1OC [Compound 28]	50 to 500 nM	0.01 to 10 nM	5000 to 100000 nM	50 to 500 nM
CNC(=O)c1nnc(NC(=O)C2CC2)cc1Nc1cccc(-c2ccc(C(=O)N(C)Cc3cccnc3)nc2)c1OC [Compound 30]	50 to 500 nM	0.01 to 10 nM	5000 to 100000 nM	50 to 500 nM
CNC(=O)c1nnc(NC(=O)C2CC2)cc1Nc1cccc(-c2cnc(C(=O)N(C)Cc3cc(C#N)ccn3)cc2C)c1OC [Compound 32]	500 to 5000 nM	0.01 to 10 nM	5000 to 100000 nM	500 to 5000 nM
CNC(=O)c1nnc(NC(=O)C2CC2)cc1Nc1ccc(C)c(-c2ccc(C(=O)N(C)Cc3cc(C#N)ccn3)nc2)c1OC [Compound 33]	10 to 50 nM	0.01 to 10 nM	5000 to 100000 nM	10 to 50 nM
CNC(=O)c1nnc(NC(=O)C2CC2)cc1Nc1ccc(C)c(-c2ccc(C(=O)N(C)Cc3ccn(C)n3)nc2)c1OC [Compound 34]	50 to 500 nM	0.01 to 10 nM	5000 to 100000 nM	50 to 500 nM
CNC(=O)c1nnc(NC(=O)C2CC2)cc1Nc1cccc(-c2ccc(C(=O)N(C)Cc3cc(C#N)ccn3)nn2)c1OC [Compound 35]	500 to 5000 nM	0.01 to 10 nM	5000 to 100000 nM	50 to 500 nM
CNC(=O)c1nnc(NC(=O)C2CC2)cc1Nc1cccc(-c2cnc(C(=O)N(C)Cc3cc(C#N)ccn3)nc2)c1OC [Compound 36]	50 to 500 nM	0.01 to 10 nM	5000 to 100000 nM	50 to 500 nM
CNC(=O)c1nnc(NC(=O)C2CC2)cc1Nc1cccc(-c2cnc(C(=O)N(C)Cc3cc(C#N)ccn3)cn2)c1OC [Compound 37]	50 to 500 nM	0.01 to 10 nM	5000 to 100000 nM	50 to 500 nM
CNC(=O)c1nnc(NC(=O)C2CC2)cc1Nc1cccc(-c2cnn(C3CN(Cc4ccccn4)C3)c2)c1OC [Compound 39]	50 to 500 nM	0.01 to 10 nM	500 to 5000 nM	50 to 500 nM
CNC(=O)c1nnc(NC(=O)C2CC2)cc1Nc1cccc(-c2ccc(C(=O)N(C)Cc3ccnn3C)nc2)c1OC [Compound 40]	500 to 5000 nM	0.01 to 10 nM	5000 to 100000 nM	500 to 5000 nM
CNC(=O)c1nnc(NC(=O)C2CC2)cc1Nc1cccc(-c2cnn(C3CN(Cc4ccn(C)n4)C3)c2)c1OC [Compound 41]	50 to 500 nM	0.01 to 10 nM	500 to 5000 nM	50 to 500 nM
CNC(=O)c1nnc(NC(=O)C2CC2)cc1Nc1ccc(C)c(-c2cnc(C(=O)N(C)Cc3cc(C#N)ccn3)c(F)c2)c1OC [Compound 42]	50 to 500 nM	0.01 to 10 nM	5000 to 100000 nM	50 to 500 nM
CNC(=O)c1nnc(NC(=O)C2CC2)cc1Nc1ccc(C)c(-c2cnc(C(=O)N(C)Cc3ccccn3)c(F)c2)c1OC [Compound 43]	500 to 5000 nM	0.01 to 10 nM	5000 to 100000 nM	500 to 5000 nM
CNC(=O)c1nnc(NC(=O)C2CC2)cc1Nc1cccc(-c2cnn(C3CN(Cc4cnn(C)c4)C3)c2)c1OC [Compound 44]	500 to 5000 nM	0.01 to 10 nM	500 to 5000 nM	500 to 5000 nM
CNC(=O)c1nnc(NC(=O)C2CC2)cc1Nc1cccc(-c2cnc(C(=O)N(C)Cc3cccnn3)c(F)c2)c1OC [Compound 48]	500 to 5000 nM	0.01 to 10 nM	5000 to 100000 nM	500 to 5000 nM
CNC(=O)c1nnc(NC(=O)C2CC2)cc1Nc1cccc(-c2ccc(C(=O)N(C)Cc3cc(C#N)ccn3)cn2)c1OC [Compound 55]	500 to 5000 nM	0.01 to 10 nM	5000 to 100000 nM	500 to 5000 nM
[2H]C([2H])([2H])NC(=O)c1nnc(NC(=O)C2CC2)cc1Nc1cccc(-c2ccc(C(=O)N(C)Cc3cc(C#N)ccn3)nc2)c1OC [Compound 61]	50 to 500 nM	0.01 to 10 nM	5000 to 100000 nM	50 to 500 nM
CNC(=O)c1nnc(NC(=O)C2CC2)cc1Nc1cccc(-c2cnn(C3CN(Cc4cc(C#N)ccn4)C3)c2)c1OC [Compound 66]	500 to 5000 nM	0.01 to 10 nM	5000 to 100000 nM	50 to 500 nM
CNC(=O)c1nnc(NC(=O)C2CC2)cc1Nc1ccc(C)c(-c2cnn(C3CN(Cc4cc(C#N)ccn4)C3)c2)c1OC [Compound 68]	500 to 5000 nM	0.01 to 10 nM	5000 to 100000 nM	500 to 5000 nM
CNC(=O)c1nnc(NC(=O)C2CC2)cc1Nc1cccc(-c2cnc(C(=O)N(C)Cc3ccn(C)n3)c(C#N)c2)c1OC [Compound 92]	500 to 5000 nM	0.01 to 10 nM	5000 to 100000 nM	500 to 5000 nM
CNC(=O)c1nnc(NC(=O)C2CC2)cc1Nc1cccc(-c2ccc(C(=O)N(C)Cc3ccn(C)n3)c(C#N)c2)c1OC [Compound 119]	500 to 5000 nM	0.01 to 10 nM	5000 to 100000 nM	500 to 5000 nM
CNC(=O)c1nnc(NC(=O)C2CC2)cc1Nc1cccc(-c2ccc(C(=O)N(C)Cc3c(C)ccnc3C)nc2)c1OC [Compound 133]	50 to 500 nM	0.01 to 10 nM	5000 to 100000 nM	50 to 500 nM
CNC(=O)c1nnc(NC(=O)C2CC2)cc1Nc1cccc(-c2ccc(C(=O)N(C)Cc3cccc(C#N)n3)nc2)c1OC [Compound 135]	50 to 500 nM	0.01 to 10 nM	5000 to 100000 nM	50 to 500 nM
